Laboratory results taken from patent publication US7501281B2, “Compositions, methods and kits related to thrombin, Notch signaling and stamatogenesis and growth of stem cells” (Maine Medical Center Research Institute, priority 2003, dated 2009).
Marks after values point to notes of the source that are not given here.

B1: sDl1: soluble non-transmembrane form of the Notch ligand Delta1 (protein)
chain: QVWSSGVFELKLQEFVNKKGLLGNRNCCRGGAGPPPCACRTFFRVCLKHYQASVSPEPPCTYGSAVTPVLGVDSFSLPDGGGADSAFSNPIRFPFGFTWPGTFSLIIEALHTDSPDDLATENPERLISRLATQRHLTVGEEWSQDLHSSGRTDLKYSYRFVCDEHYYGEGCSVFCRPRDDAFGHFTCGERGEKVCNPGWKGPYCTEPICLPGCDEQHGFCDKPGECKCRVGWQGRYCDECIRYPGCLHGTCQQPWQCNCQEGWGGLFCNQDLNYCTHHKPCKNGATCTNTGQGSYTCSCRPGYTGATCELGIDECDPSPCKNGGSCTDLENSYSCTCPPGFYGKICELSAMTCADGPCFNGGRCSDSPDGGYSCRCPVGYSGFNCEKKIDYCSSSPCSNGAKCVDLGDAYLCRCQAGFSGRHCDDNVDDCASSPCANGGTCRDGVNDFSCTCPPGYTGRNCSAPVSRCEHAPCHNGATCHERGHRYVCECARGYGGPNCQFLLPELPPGPAVVDLTEKLEGQGGPFPW
modifications: left off: small tags and cut ends
notes: soluble non-transmembrane form of the Notch ligand Delta1

Key:
[1] = tested on: NCSC populations; experiment: Clonogenic differentiation and serial subcloning assays of NCSC clones (secondary NCSC); format: cell-based, murine; design: G / Sm / G + Sm: unit not given here; conditions: for NCSC clones that did not express either gliogenic or neurogenic differentiation markers: after 7 days of expansion; for clones that were trifatent (neurons, glial, and smooth muscle progeny): secondary clones established from treated founder clones
Protocol: Clonogenic assays were performed as described (Stemple et al., 1992, Cell 71:973-985). Briefly, populations of murine NCSC were plated at a clonal density and maintained for a maximum of 14 days in Morrison media supplemented with 15% chick embryo extract (Morrison et al., 1999, Cell 96:737-749). The resulting clones were fixed in an acetic acid:ethanol solution (2:1) and stained with antibodies against peripherin (Chemicon) to detect neurons, smooth muscle actin (Sigma) to detect myofibroblasts, and GFAP (Chemicon) to detect Schwann cells. Clones were scored based on the appearance of just one phenotypic representative. The number and percentage of clones containing neurons only (N), Schwann cells only (S), myofibroblasts only (M), N+S, N+M, N+S+M, and S+M were scored at day 14 unless otherwise stated. The production of each representative phenotype in each individual clone was also scored to complement the clonal population assay.
In order to generate secondary NCSC populations, founder clones originating from differentiating E10 clones at distinct time points during NCSC differentiation (days 2 through 18) were treated with trypsin and replated at a cell clonal density using methods previously described (Kubu et al., 2000, Genomics 70:150-152). The resulting cells were subjected to immunofluorescence microscopy using both p75^+ and P0^− antibodies (Kubu et al., 2000, Genomics 70:150-152) and the p75^+/P0^− cells identified as putative stem cells. All non-p75^+/P0^− cells were removed from the dish with a tungsten needle. The cultures of secondary NCSC clones were subjected to the clonogenic assay as described above.
Specifically, clonogenic differentiation and serial subcloning assays were performed using NCSC clones incubated with either thrombin, sDl1, sJ1 or TRAP.
Briefly, presented are the number of colonies with the resulting differentiation profiles (mean±SD of three experiments resulting from individual NCSC isolations).
A genetic approach was used to determine whether thrombin, TRAP, or sJ1 were able to promote cell cycle progression in the NCSC population. Thus, a dnFGFR1 construct was expressed in the NSC cells and the clonogenic differentiation assay conducted in the presence of either sJ1, thrombin or no additional supplement.

[2] = tested on: clonal cortical neurospheres; experiment: Cortical neurosphere model, secondary sphere formation; format: cell-based, murine; conditions: for F/SP × 10^2 / Cells/Founder (F) / Secondary Spheres (SP): day 10; for Cells/Founder (F): mean±SD; for Secondary Spheres (SP): from dissociation of founder spheres, mean±SD of three experiments; for secondary spheres per primary sphere: primary spheres grown 2 weeks with the factor, secondary spheres in standard media
From the text: The E14 prefrontal ventricular zone was dissected and plated at a clonal neurosphere-forming density in the presence of either sJ1, sDl1, thrombin, TRAP or no supplementation. After 2 weeks, the clones were dissociated to single cells and secondary spheres were generated using standard media with no supplementation (Reynolds et al., 1992, J. Neurosci. 12:4565-4574).
Secondary spheres (SP) are formed from the dissociation of founder (F) spheres. The data presented are the number of colonies (mean±SD of three experiments). (*=p≦0.05).

[3] = tested on: FGF1.A transcript in murine NCSC; experiment: RT-PCR analysis of FGF1.A mRNA expression in NCSC; format: cell-based; conditions: 48 hours; 7.5 nM sJ1, 5.0 nM sDl1, 10 μg/ml α-thrombin or 5 μg/ml TRAP
[4] = tested on: neurosphere cultures and p75+/P0- neural crest stem cells; experiment: RT-PCR of self-renewal transcripts Nestin, Nucleostemin and Bmi1; format: cell-based, murine; conditions: for relative expression of Nestin, Nucleostemin and Bmi1 transcripts: primary and secondary neurosphere cultures
Protocol: Clonal NCSC neurospheres were generated and allowed to expand for 10 days in either 7.5 nM sJ1, 5 nM sD1, 5 μg/ml α-thrombin, and no additive (control) (FIG. 13A) as described elsewhere herein. Clonal NCSC neurospheres were generated in a feeder-layer coculture system using a monolayer of stable full-length (FL) Jagged1 NIH 3T3 cell transfectants or insert-less NIH 3T3 cell transfectants and treated with either 5 μg/ml thrombin or without further supplementation (control) (FIG. 13B). The results are presented as representative photomicrographs of the spheres obtained under each condition after 14 days of treatment. […] Clonal neurospheres were generated in the presence of either 5 μg/ml α-thrombin, 7.5 nM sJ1, 5 nM sDl1 or no supplement (control) and expanded for 14 days. RT-PCR was used to determine the steady-state mRNA level for three markers of neural stem cells (Nestin, Nucleostemin and Bmi1). An increase in the expression of all three transcripts compared to control was observed. […] Approximately 5×10^2 NCSC were plated in Morrison media supplemented with either 7.5 nM sJ1, 5 μg/ml α-thrombin, 5 nM sD1, 2 ng/ml BMP2 or no additive (control) for 48 hours. The results are presented as the percent of control (mean±standard deviation of three RT-PCR experiments) performed in triplicate. No change in the steady-state level mRNA levels of the three markers relative to actin was observed.
RT-PCR was performed with 1 μg RNA using the Platinum Taq One Step RT-PCR kit (Invitrogen) as follows: RT (30 minutes at 50° C.), PCR (40 cycles at 94° C. for 15 seconds, at 58° C. for 30 seconds and 72° C. for 1 minute). All amplified cDNA was visualized with ethidium bromide followed by 1.5% agarose gel electrophoresis. RT-PCR analysis of fgf and gapdh was performed as previously described elsewhere herein. […] Each reaction product was measured as a ratio relative to the amplification product of actin and samples were run in triplicate. […]

[5] = colonies from secondary NCSC, mean±SD
[6] = dnFGFR1-transduced NCSC, trifatent
[7] = glial-only colonies from secondary NCSC, mean±SD
[8] = secondary stem cells from NCSC founders after ten days of expansion, mean±SD
[9] = smooth muscle-only colonies from secondary NCSC, mean±SD
[10] = trifatent colonies from secondary NCSC, mean±SD

Molecule | NCSC clones that did not express either gliogenic or neurogenic differentiation markers [1] [%] | G + Sm [1, 5] | N + G [1, 5] | N + Sm [1, 5] | G ([1]; dnFGFR1-transduced NCSC) | G + Sm ([1]; dnFGFR1-transduced NCSC) | N + G ([1]; dnFGFR1-transduced NCSC) | N + Sm ([1]; dnFGFR1-transduced NCSC) | Secondary NSSC/Founder ([1]; dnFGFR1-transduced NCSC) | Sm ([1]; dnFGFR1-transduced NCSC) | G [1, 7] | clones that were trifatent (neurons, glial, and smooth muscle progeny) [1] [%] | Secondary NSSC/Founder [1, 8] | Sm [1, 9] | N + G + Sm [1, 10] | F/SP × 10^2 [2] | Cells/Founder (F) [2] | Secondary Spheres (SP) [2] | secondary spheres per primary sphere [2] | expression of the FGF1.A transcript [3] | further results
Thrombin | 75±11 | 2.0 ± 2.1 | 3.93 ± 3.8 | 4.5 ± 2.1 | 1.7 ± 3.1 | 6.9 ± 8.3 | 9.8 ± 3.2 | 5.5 ± 1.5 | 13.5 ± 2.9 | 24.13 ± 1.4 | 0 ± 0 | 86.8±2.1 | 36.8 ± 6.3 | 2.6 ± 1.01 | 86.8 ± 2.1 | 13%* | 488 ± 166* | 64 ± 11 | 55±14 | induced | N ([1]; dnFGFR1-transduced NCSC): 5.9 ± 1.7; N + G + Sm [1, 6]: 46.0 ± 13.6; relative expression of Nestin, Nucleostemin and Bmi1 transcripts [4]: elevated
sJ1: Soluble Jagged1, amino acid residues from about 1 to 1067 (SEQ ID NO:3) of full-length Jagged1 | 84±7 | 3.4 ± 2.8 | 7.0 ± 5.6 | 1.5 ± 1.7 | 9.3 ± 2.7 | 10.3 ± 6.3 | 7.2 ± 4.5 | 6.2 ± 7.0 | 13.5 ± 4.7 | 16.4 ± 8.5 | 7.8 ± 1.4 | 74.1±9 | 26.2 ± 6 | 6.2 ± 1.0 | 74.1 ± 9.1 | 10%* | 527 ± 170* | 55 ± 14 | 64±11 | induced | N + G + Sm [1, 6]: 48.0 ± 11.8; relative expression of Nestin, Nucleostemin and Bmi1 transcripts [4]: elevated
B1 | 0±0 | 3.4 ± 2.8 | 0 | 0 | – | – | – | – | – | – | 72 ± 6.4 | 0.5 | 0.6 ± 1.0 | 20.5 ± 6.5 | 0.5 ± 0.7 | 2.0% | 150 ± 69* | 3 ± 3 | 3±3 | did not influence | levels of Nestin, Nucleostemin and Bmi1 transcripts ([4]; p75+/P0- neural crest stem cells, 24 and 48 hours): sharply decreased
